Experimental findings from PMC4703063, “Dual functionality of O-GlcNAc transferase is required for Drosophila development” (Open Biology, 2015) are described below.

Where a chain is given by its changes, count along the chain named. Names may count otherwise.

Data set [1] deals with T1, Δ1–352 DmOGT (Drosophila melanogaster, UniProt Q7KJA9, K872M).
T1 construct: gene sxc; N-terminally truncated construct starting at residue 353 in TPR 10 (part of TPRs plus catalytic domain); expressed in E. coli (ArcticExpress), purified as hOGT Δ1-312; wild type in kinetics, K872M in crystal
T1 sequence (Q7KJA9 353-1059 K872M): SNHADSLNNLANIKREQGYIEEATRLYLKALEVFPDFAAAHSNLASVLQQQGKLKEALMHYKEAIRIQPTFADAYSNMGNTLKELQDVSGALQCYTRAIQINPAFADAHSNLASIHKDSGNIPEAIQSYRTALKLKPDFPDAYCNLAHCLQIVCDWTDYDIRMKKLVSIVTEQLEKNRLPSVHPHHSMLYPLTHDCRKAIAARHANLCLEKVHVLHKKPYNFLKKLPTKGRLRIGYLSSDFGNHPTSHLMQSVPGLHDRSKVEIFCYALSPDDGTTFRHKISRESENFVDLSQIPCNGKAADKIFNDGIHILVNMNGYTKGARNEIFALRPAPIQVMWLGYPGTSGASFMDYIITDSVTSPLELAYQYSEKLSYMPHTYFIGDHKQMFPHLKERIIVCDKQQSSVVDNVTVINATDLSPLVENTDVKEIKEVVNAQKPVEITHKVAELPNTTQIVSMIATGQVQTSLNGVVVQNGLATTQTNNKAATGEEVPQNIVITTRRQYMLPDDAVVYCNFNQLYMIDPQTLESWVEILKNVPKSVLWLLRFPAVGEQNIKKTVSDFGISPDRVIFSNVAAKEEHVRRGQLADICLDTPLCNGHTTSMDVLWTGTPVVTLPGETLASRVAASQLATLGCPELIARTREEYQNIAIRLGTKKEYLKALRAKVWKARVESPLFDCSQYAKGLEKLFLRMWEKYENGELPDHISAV
The data set can be described thus: X-ray crystallography (co-crystal, […] Å). It counts as binding. Conditions: 3 mM UDP-5S-GlcNAc; pH 7.5 protein buffer; 21 °C.

Data set [2] deals with T2, Δ1–352 DmOGT (Drosophila melanogaster, UniProt Q7KJA9).
T2 construct: gene sxc; N-terminally truncated construct starting at residue 353 in TPR 10 (part of TPRs plus catalytic domain); expressed in E. coli (ArcticExpress), purified as hOGT Δ1-312; wild type in kinetics, K872M in crystal
T2 sequence (Q7KJA9 353-1059): T1 sequence (Q7KJA9 353-1059 K872M) with M520K
The data set is described as follows: radiometric transfer assay on RBL2 peptide, Ki from IC50 by Cheng-Prusoff. It counts as biochemical.

Data set [3] has as its target T2, Δ1–352 DmOGT. The data set is described as follows: radiometric transfer assay on RBL2 peptide, three-parameter dose-response fit. Type of data set: biochemical.
Data set [4] concerns the target T3, Δ1–312 hOGT (Homo sapiens, UniProt O15294).
T3 construct: gene OGT; N-terminally truncated, residues 1-312 removed (printed once as Δ1-313 beside the Ki); part of TPRs plus catalytic domain; recombinant
T3 sequence (O15294 323-1041): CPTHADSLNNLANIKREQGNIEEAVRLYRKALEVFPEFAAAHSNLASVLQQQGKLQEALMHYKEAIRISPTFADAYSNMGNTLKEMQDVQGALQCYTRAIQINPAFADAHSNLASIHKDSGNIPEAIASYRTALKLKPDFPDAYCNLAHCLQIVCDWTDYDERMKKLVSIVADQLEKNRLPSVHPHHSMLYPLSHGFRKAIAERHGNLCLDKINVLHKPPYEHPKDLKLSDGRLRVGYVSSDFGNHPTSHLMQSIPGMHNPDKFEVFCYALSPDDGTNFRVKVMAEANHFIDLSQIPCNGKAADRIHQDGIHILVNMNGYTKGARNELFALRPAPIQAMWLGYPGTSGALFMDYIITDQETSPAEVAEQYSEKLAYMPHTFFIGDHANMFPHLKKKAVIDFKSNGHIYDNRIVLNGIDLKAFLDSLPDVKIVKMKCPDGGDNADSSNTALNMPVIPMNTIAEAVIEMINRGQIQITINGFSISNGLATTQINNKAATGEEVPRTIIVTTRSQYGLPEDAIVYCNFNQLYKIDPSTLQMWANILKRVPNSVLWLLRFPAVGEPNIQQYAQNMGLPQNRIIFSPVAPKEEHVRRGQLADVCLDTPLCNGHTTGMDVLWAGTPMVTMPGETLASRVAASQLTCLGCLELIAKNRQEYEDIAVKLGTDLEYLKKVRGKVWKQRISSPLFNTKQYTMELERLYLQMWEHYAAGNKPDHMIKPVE
The description is as above. It counts as biochemical.

Data set [5] concerns the target T3, Δ1–312 hOGT. The data set is described as follows: radiometric transfer assay on RBL2 peptide, Ki from IC50 by Cheng-Prusoff. It counts as biochemical.
Substrate in data set [6]: CC(=O)N[C@H]1[C@@H](OP(=O)(O)OP(=O)(O)OC[C@H]2O[C@@H](n3ccc(=O)[nH]c3=O)[C@H](O)[C@@H]2O)O[C@H](CO)[C@@H](O)[C@@H]1O
The data set is described as follows: radiometric transfer assay on RBL2 peptide, Michaelis-Menten fit. Type of data set: biochemical, Homo sapiens. The following applies: 0.25 mM RBL2 peptide …, UDP-[3H]-GlcNAc tracer, pH 7.5.

Substrate in data set [7]: CC(=O)N[C@H]1[C@@H](OP(=O)(O)OP(=O)(O)OC[C@H]2O[C@@H](n3ccc(=O)[nH]c3=O)[C@H](O)[C@@H]2O)O[C@H](CO)[C@@H](O)[C@@H]1O
Described as above. It counts as biochemical, Drosophila melanogaster. Conditions: 0.25 mM RBL2 peptide …, UDP-[3H]-GlcNAc tracer, pH 7.5.

With `CC(=O)N[C@@H]1[C@@H](O)[C@H](O)[C@@H](CO)S[C@@H]1OP(=O)(O)OP(=O)(O)OC[C@H]1O[C@@H](n2ccc(=O)[nH]c2=O)[C@H](O)[C@@H]1O` [UDP-5S-GlcNAc], the “X-ray crystallography (co-crystal, 2.7 Å)” value at Δ1–352 DmOGT [1] was “crystallized in complex with the inhibitor/substrate analogue UDP-5S-GlcNAc”. Moreover, the inhibition constant (Ki) – broadly, the equilibrium dissociation constant of an inhibitor or competing ligand from its target – on Δ1–352 DmOGT [2] was found to be 36.2 µM; at Δ1–312 hOGT [5], 13.6 µM. Moreover, the IC50 (commonly the concentration that gives 50% inhibition) against Δ1–352 DmOGT [3] stood at 68.3 µM; at Δ1–312 hOGT [4] it was 24.6 µM.

B1: Δ1–312 hOGT (Homo sapiens) (protein)
chain: T3 sequence (O15294 323-1041)
notes: N-terminally truncated, residues 1-312 removed (printed once as Δ1-313 beside the Ki); part of TPRs plus catalytic domain; recombinant
For the molecule B1, the Km (in general, the substrate concentration at which the rate is half of its maximum) in data set [6] is 6.6 ± 0.3 µM.

B2: Δ1–352 DmOGT (Drosophila melanogaster) (protein)
chain: T1 sequence (Q7KJA9 353-1059 K872M) with M520K
notes: N-terminally truncated construct starting at residue 353 in TPR 10 (part of TPRs plus catalytic domain); expressed in E. coli (ArcticExpress), purified as hOGT Δ1-312; wild type in kinetics, K872M in crystal
As for B2, in data set [7], the Km worked out at 17.8 ± 0.7 µM.
